{
  "source": "patent US20070123571A1",
  "about": "“Use of a compound in the treatment of sleep disorders” (priority 2003, published 2007)",
  "key": {"[1]": {"assay": "Loughborough sleep log, morning log: awoke refreshed / quality of sleep responses", "type": "in vivo, human", "text": "Typically, the percentage of individuals who, after taking a dose of triprolidine before sleeptime, wake refreshed after sleeping is in the range 1-100%, more typically, 5-70%, most typically 10-35%. An especially typical range as aforesaid is 15-30% or even more especially 20-30%. Typically, by the terms “waking refreshed” or “wake refreshed” is meant that an individual felt at least refreshed on waking, preferably, the terms are defined as the individual felt very refreshed or refreshed in accordance with the Loughborough sleep log.\nThe degree of refreshedness and quality of sleep may be determined by the “morning” log of the Loughborough sleep log with the highest degree of refreshedness or quality of sleep being represented as 1 and the lowest being represented as 5. Accordingly, the percentage increase in refreshedness or quality of sleep is measured in this context by the decrease in the mean refreshedness or quality of sleep.\nPreferably, by the use of the present invention, the response of awakening very refreshed or refreshed, as determined, for instance, by the morning log of the Loughborough sleep log, is improved by at least 20%, more preferably, by at least, 30%, most preferably by at least 40%, as compared with an equivalent dose of placebo.\nPreferably, by the use of the present invention, the response of sleeping extremely well or very well, as determined, for instance, in accordance with the morning log of the Loughborough sleep log, is improved by at least 20%, more preferably, at least, 35%, most preferably at least 50%, as compared with an equivalent dose of placebo.\nPreferably, by the use of the present invention, the response of sleeping extremely well or very well, as determined, for instance, in accordance with the morning log of the Loughborough sleep log, is found for at least 20% of individuals, more preferably, at least 25%, most preferably, at least 30%. For example over 35% of individuals had such a response."}, "[2]": {"assay": "Karolinska 9-point scale: alertness / sleepiness on waking", "type": "in vivo, human", "text": "By the term felt alert is meant that an individual felt at least alert on waking. Preferably, the term is defined as the individual felt alert, very alert or extremely alert in accordance with the Karolinska 9-point scale. By the term felt sleepy is meant that an individual felt sleepy on waking. Preferably, the term is defined as the individual felt sleepy or very sleepy in accordance with points 8 or 9 of the Karolinska 9-point scale. Preferably, by the use of the present invention, the response of feeling extremely alert, very alert or alert as determined, for instance, in accordance with the Karolinska 9-point scale, is improved by at least 2%, more preferably, by at least, 5%, most preferably by at least 10%, as compared with an equivalent dose of placebo. Preferably, by the use of the present invention, the response of feeling sleepy and needing to make some effort to stay awake or very sleepy, as determined, for instance, in accordance with points 8 and 9 of the Karolinska 9 point scale, is improved (i.e. decreased) by at least 2%, more preferably, by at least, 4%, most preferably, by at least 10%, as compared with an equivalent dose of placebo."}, "[3]": {"conditions": "single doses 10 mg or 20 mg sustained release at bedtime, volunteers, compared with placebo; cited from earlier work"}},
  "note": "Structures can show the parent of a compound that is named as a salt.",
  "data": [
    {"smiles": "Cc1ccc(/C(=C\\CN2CCCC2)c2ccccn2)cc1", "note": "[TRP•HCl•H2O]", "values": [
      {"measurement": "Loughborough Sleep Log: Awoke Very Refreshed or Refreshed Responses", "setting": "[1]; 2.5 mg dose, Monday", "value": 23, "unit": "%"},
      {"measurement": "Loughborough Sleep Log: Last Night I Slept Extremely Well or Very Well Responses", "setting": "[1]; 2.5 mg dose, Monday", "value": 41.4, "unit": "%"},
      {"measurement": "Loughborough Sleep Log: Awoke Very Refreshed or Refreshed Responses", "setting": "[1]; 2.5 mg dose, Tuesday", "value": 23, "unit": "%"},
      {"measurement": "Loughborough Sleep Log: Last Night I Slept Extremely Well or Very Well Responses", "setting": "[1]; 2.5 mg dose, Tuesday", "value": 41.8, "unit": "%"},
      {"measurement": "Loughborough Sleep Log: Awoke Very Refreshed or Refreshed Responses", "setting": "[1]; 2.5 mg dose, Wednesday", "value": 25.8, "unit": "%"},
      {"measurement": "Loughborough Sleep Log: Last Night I Slept Extremely Well or Very Well Responses", "setting": "[1]; 2.5 mg dose, Wednesday", "value": 37.9, "unit": "%"},
      {"measurement": "Loughborough Sleep Log: Awoke Very Refreshed or Refreshed Responses", "setting": "[1]; 5 mg dose, Monday", "value": 11.5, "unit": "%"},
      {"measurement": "Loughborough Sleep Log: Last Night I Slept Extremely Well or Very Well Responses", "setting": "[1]; 5 mg dose, Monday", "value": 50.9, "unit": "%"},
      {"measurement": "Loughborough Sleep Log: Awoke Very Refreshed or Refreshed Responses", "setting": "[1]; 5 mg dose, Tuesday", "value": 8.2, "unit": "%"},
      {"measurement": "Loughborough Sleep Log: Last Night I Slept Extremely Well or Very Well Responses", "setting": "[1]; 5 mg dose, Tuesday", "value": 28.8, "unit": "%"},
      {"measurement": "Loughborough Sleep Log: Awoke Very Refreshed or Refreshed Responses", "setting": "[1]; 5 mg dose, Wednesday", "value": 14.8, "unit": "%"},
      {"measurement": "Loughborough Sleep Log: Last Night I Slept Extremely Well or Very Well Responses", "setting": "[1]; 5 mg dose, Wednesday", "value": 39.3, "unit": "%"},
      {"measurement": "(b) I feel (i) sleepy, [and need to make] some effort or (ii) very sleepy, a great effort to keep awake", "setting": "[2]; 2.5 mg dose, Monday", "value": 11.5, "unit": "%"},
      {"measurement": "Karolinska 9-point scale (a) I feel extremely alert, very alert or alert", "setting": "[2]; 2.5 mg dose, Monday", "value": 21.3, "unit": "%"},
      {"measurement": "(b) I feel (i) sleepy, [and need to make] some effort or (ii) very sleepy, a great effort to keep awake", "setting": "[2]; 2.5 mg dose, Tuesday", "value": 13.1, "unit": "%"},
      {"measurement": "Karolinska 9-point scale (a) I feel extremely alert, very alert or alert", "setting": "[2]; 2.5 mg dose, Tuesday", "value": 21.3, "unit": "%"},
      {"measurement": "(b) I feel (i) sleepy, [and need to make] some effort or (ii) very sleepy, a great effort to keep awake", "setting": "[2]; 2.5 mg dose, Wednesday", "value": 6.5, "unit": "%"},
      {"measurement": "Karolinska 9-point scale (a) I feel extremely alert, very alert or alert", "setting": "[2]; 2.5 mg dose, Wednesday", "value": 21.0, "unit": "%"},
      {"measurement": "(b) I feel (i) sleepy, [and need to make] some effort or (ii) very sleepy, a great effort to keep awake", "setting": "[2]; 5 mg dose, Monday", "value": 12.5, "unit": "%"},
      {"measurement": "Karolinska 9-point scale (a) I feel extremely alert, very alert or alert", "setting": "[2]; 5 mg dose, Monday", "value": 6.3, "unit": "%"},
      {"measurement": "(b) I feel (i) sleepy, [and need to make] some effort or (ii) very sleepy, a great effort to keep awake", "setting": "[2]; 5 mg dose, Tuesday", "value": 17.5, "unit": "%"},
      {"measurement": "Karolinska 9-point scale (a) I feel extremely alert, very alert or alert", "setting": "[2]; 5 mg dose, Tuesday", "value": 9.5, "unit": "%"},
      {"measurement": "(b) I feel (i) sleepy, [and need to make] some effort or (ii) very sleepy, a great effort to keep awake", "setting": "[2]; 5 mg dose, Wednesday", "value": 12.7, "unit": "%"},
      {"measurement": "Karolinska 9-point scale (a) I feel extremely alert, very alert or alert", "setting": "[2]; 5 mg dose, Wednesday", "value": 17.5, "unit": "%"},
      {"measurement": "sleep onset latency (time required to fall asleep)", "setting": "[3]", "value": "did not significantly alter"},
      {"measurement": "total sleep time", "setting": "[3]", "value": "no effect"},
      {"measurement": "wakefulness during sleep", "setting": "[3]", "value": "no effect"}
    ]}
  ]
}
